Among the data in ChEMBL document CHEMBL5316303, “[1,2,4]Triazolo[3,4-b]benzothiazole Scaffold as Versatile Nicotinamide Mimic Allowing Nanomolar Inhibition of Different PARP Enzymes” (J Med Chem, 2023) are IC50, Stability and Activity values, retold here.

The structures appear in SMILES notation.

In data set [1] the target is T1, Protein mono-ADP-ribosyltransferase PARP10 (Homo sapiens, UniProt Q53GL7).
T1 sequence (Q53GL7 whole entry): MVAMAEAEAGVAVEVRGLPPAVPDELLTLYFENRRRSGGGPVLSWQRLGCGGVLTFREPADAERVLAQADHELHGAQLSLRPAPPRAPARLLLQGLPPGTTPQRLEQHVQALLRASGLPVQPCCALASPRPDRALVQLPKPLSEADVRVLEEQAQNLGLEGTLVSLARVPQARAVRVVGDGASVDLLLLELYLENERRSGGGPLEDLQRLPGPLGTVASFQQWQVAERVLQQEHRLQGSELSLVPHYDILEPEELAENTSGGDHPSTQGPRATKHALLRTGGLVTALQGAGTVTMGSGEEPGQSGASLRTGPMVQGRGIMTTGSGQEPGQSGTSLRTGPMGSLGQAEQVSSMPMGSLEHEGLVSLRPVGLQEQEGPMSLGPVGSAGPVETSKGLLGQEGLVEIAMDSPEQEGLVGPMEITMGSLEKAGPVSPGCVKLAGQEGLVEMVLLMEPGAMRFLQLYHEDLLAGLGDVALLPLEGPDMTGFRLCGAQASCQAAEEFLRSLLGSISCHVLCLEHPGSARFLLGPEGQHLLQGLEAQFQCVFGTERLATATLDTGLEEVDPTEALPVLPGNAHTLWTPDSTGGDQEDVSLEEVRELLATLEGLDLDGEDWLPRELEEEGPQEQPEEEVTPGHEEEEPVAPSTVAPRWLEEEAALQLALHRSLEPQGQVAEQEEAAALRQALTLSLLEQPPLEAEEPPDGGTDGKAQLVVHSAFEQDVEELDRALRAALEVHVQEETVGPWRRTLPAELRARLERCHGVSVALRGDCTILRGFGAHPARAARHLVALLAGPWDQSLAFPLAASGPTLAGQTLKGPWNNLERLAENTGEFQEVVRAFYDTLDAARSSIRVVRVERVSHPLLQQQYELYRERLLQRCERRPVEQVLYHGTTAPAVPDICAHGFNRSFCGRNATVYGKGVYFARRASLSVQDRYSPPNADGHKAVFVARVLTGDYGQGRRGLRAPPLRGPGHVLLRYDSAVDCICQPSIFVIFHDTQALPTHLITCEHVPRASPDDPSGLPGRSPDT
As to the kind of experiment: Inhibition of N-terminal MBP tagged/C-terminal PARP10 (unknown origin) expressed in Escherichia coli in presence of NAD+.

For data set [2], the target named is T2, Protein mono-ADP-ribosyltransferase PARP15 (Homo sapiens, UniProt Q460N3).
T2 sequence (Q460N3 whole entry): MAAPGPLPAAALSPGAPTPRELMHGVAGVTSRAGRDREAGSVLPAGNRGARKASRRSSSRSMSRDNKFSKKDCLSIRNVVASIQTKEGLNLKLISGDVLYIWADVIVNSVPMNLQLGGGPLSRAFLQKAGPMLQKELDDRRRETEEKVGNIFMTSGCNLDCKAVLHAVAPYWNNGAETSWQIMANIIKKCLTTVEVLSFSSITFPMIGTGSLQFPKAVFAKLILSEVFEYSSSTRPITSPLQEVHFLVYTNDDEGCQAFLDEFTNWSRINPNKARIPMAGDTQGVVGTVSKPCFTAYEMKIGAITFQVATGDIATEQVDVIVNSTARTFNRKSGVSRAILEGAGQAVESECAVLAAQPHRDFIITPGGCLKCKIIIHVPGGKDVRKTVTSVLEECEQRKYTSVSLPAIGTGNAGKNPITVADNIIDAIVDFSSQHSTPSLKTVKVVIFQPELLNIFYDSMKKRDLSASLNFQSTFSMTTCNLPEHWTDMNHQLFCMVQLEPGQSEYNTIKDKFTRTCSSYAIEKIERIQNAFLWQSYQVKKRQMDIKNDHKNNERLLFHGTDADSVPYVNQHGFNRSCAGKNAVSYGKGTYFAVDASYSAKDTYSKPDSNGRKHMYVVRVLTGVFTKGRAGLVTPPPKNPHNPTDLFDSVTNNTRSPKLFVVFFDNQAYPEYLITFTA
As to the kind of experiment: Inhibition of N-terminal MBP tagged/C-terminal PARP15 (unknown origin) expressed in Escherichia coli in presence of NAD+.

Data set [3] in a line: Stability in human plasma measured upto 24 hrs by UV/LC-MS analysis. Type of data set: ADME, cell-free.
Data set [4] is described as follows: Stability of the compound in PBS buffer at pH 7.4 measured upto 24 hrs by UV/LC-MS analysis. Type of data set: physicochemical. The conditions noted are these: pH 7.4, 24 h.
Data set [5] in a line: Stability of the compound in MeOH measured upto 24 hrs by UV/LC-MS analysis. Type of data set: physicochemical.
In a further data set the test system is HEK-293T. As to the kind of experiment: Cytotoxicity in […] cells at 10 to 100 uM measured after 24 hrs by WST-1 based colorimetric assay. Type of data set: toxicity, cell-based. Conditions: human, dose 10-100 µM; call rule not given here.
In data set [6] the target is T3, Protein mono-ADP-ribosyltransferase TIPARP (Homo sapiens, UniProt Q7Z3E1).
T3 sequence (Q7Z3E1 whole entry): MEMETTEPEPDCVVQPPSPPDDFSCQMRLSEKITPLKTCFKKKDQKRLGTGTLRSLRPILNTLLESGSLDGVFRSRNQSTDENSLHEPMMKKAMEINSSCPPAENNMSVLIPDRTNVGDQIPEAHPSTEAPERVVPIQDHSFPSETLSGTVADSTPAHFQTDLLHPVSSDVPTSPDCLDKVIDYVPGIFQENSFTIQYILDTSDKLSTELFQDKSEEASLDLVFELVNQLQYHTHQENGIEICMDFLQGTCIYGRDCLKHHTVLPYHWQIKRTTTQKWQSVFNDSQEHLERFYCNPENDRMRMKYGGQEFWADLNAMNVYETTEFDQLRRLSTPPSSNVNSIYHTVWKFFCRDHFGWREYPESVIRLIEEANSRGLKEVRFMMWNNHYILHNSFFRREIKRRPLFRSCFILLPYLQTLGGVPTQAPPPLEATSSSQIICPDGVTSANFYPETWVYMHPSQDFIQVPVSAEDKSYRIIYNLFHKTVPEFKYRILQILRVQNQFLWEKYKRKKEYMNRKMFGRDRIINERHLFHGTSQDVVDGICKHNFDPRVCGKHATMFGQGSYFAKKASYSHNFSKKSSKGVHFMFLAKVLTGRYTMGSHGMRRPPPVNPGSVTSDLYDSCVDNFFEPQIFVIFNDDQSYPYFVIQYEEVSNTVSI
As to the kind of experiment: Inhibition of N-terminal MBP tagged/C-terminal PARP7 (unknown origin) expressed in Escherichia coli in presence of NAD+ by proximity enhanced assay.

The target of data set [7] is Protein mono-ADP-ribosyltransferase PARP6 (Homo sapiens, UniProt Q2NL67). As to the kind of experiment: Inhibition of N-terminal 6 His-MBP tagged human PARP6 expressed in Sf21 cells incubated for 18 hrs in presence of NAD+.
Protein mono-ADP-ribosyltransferase PARP6, sequence (Q2NL67 whole entry): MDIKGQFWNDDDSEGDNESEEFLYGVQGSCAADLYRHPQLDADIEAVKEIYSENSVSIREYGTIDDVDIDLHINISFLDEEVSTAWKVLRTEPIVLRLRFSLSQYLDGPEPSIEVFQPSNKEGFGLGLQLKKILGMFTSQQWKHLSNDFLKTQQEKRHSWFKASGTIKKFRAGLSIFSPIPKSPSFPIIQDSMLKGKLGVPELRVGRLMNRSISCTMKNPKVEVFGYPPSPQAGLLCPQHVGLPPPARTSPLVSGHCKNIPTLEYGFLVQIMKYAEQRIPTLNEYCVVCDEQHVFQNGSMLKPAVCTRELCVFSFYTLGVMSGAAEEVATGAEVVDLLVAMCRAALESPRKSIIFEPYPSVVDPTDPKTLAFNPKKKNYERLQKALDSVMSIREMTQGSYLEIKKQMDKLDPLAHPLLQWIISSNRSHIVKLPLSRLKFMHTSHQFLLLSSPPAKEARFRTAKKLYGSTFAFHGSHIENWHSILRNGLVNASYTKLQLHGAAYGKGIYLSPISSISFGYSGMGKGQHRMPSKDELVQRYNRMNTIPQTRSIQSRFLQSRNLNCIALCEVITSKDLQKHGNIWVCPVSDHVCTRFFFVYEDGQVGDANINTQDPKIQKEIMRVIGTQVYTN

Turning to `COc1ccc(OC)c2c1sc1nnc(S)n12`, the IC50 entry in data set [1] and in data set [2] was “Not Active” each time.

As for `COc1ccc(OC)c2c1sc1nnc(NC(=O)c3ccc(Cl)cc3)n12`, the IC50 entry in data set [1] was “Not Active”.

On to `COc1ccc(OC)c2c1sc1nnc(N)n12`, for which the Stability in data set [3], in data set [4] and in data set [5] was above 24 h throughout. Also, in the data set with HEK-293T, the Activity result is reported as “Non-Toxic”.

In the case of `Oc1ccc2c(c1)sc1nncn12`, the IC50 entry in data set [6] and in data set [7] was “Not Active” throughout. Further, the Stability in data set [3], in data set [4] and in data set [5] was above 24 h throughout. Also, the Activity entry in the data set with HEK-293T is on record as “Non-Toxic”.

For `COc1ccc(OC)c2c1sc1nnc(NC(=O)C(C)(C)C)n12`, the IC50 result in data set [1] and in data set [2] was “Not Active” throughout.

For the molecule `Cc1ccc2c(c1)sc1nnc(NCc3ccc(Cl)cc3)n12`, the IC50 result in data set [1] is “Not Active”.

As to `COc1ccc(OC)c2c1sc1nnc(NC(C)=O)n12`, the IC50 result in data set [1] and in data set [2] was “Not Active” throughout.

On to `Oc1ccc(O)c2c1sc1nncn12`, for which, in the data set with HEK-293T, the Activity result is “Toxic”.

For `COc1ccc(OC)c2c1sc1nnc(SC)n12`, the IC50 result in data set [1] and in data set [2] was “Not Active” each time.

Take `Cc1ccc2c(c1)sc1nnc(N)n12`: the Stability in data set [3], in data set [4] and in data set [5] was above 24 h throughout. The Activity result in the data set with HEK-293T is “Non-Toxic”.

As for `CC(C)c1ccc2c(c1)sc1nncn12`, the Activity entry in the data set on HEK-293T was “Toxic”.
